Laboratory results published in patent publication US10016438B2, “Bicyclic heterocycles as FGFR4 inhibitors” (Incyte Corporation, priority 2015, dated 2018).

How the values were obtained:
FGFR4 = FGFR4 (Homo sapiens (Human), UniProt P22455); test: FGFR Enzymatic Assay (FRET peptide phosphorylation), FGFR4; conditions: for FGFR1/FGFR4 / FGFR2/FGFR4 / FGFR3/FGFR4: IC50 ratio showing FGFR4 selectivity
Description: (§1) The enzymes were purchased from Millipore or Invitrogen.
(§2) GraphPad prism3 was used to analyze the data. The IC50 values were derived by fitting the data to the equation for a sigmoidal dose-response with a variable slope. Y=Bottom+(Top−Bottom)/(1+10^((Log IC50−X)*HillSlope)) where X is the logarithm of concentration and Y is the response.

FGFR2 = FGFR2 (Homo sapiens (Human), UniProt P21802); test: FGFR Enzymatic Assay (FRET peptide phosphorylation), FGFR2; conditions: read-out: FGFR2 IC50; pre-incubated for 4 hours
Description: as §1, §2

FGFR1 = FGFR1 (Homo sapiens (Human), UniProt P11362); test: FGFR Enzymatic Assay (FRET peptide phosphorylation), FGFR1; conditions: read-out: FGFR1 IC50; pre-incubated for 4 hours
Description: as §1, §2

FGFR3 = FGFR3 (Homo sapiens (Human), UniProt P22607); test: FGFR Enzymatic Assay (FRET peptide phosphorylation), FGFR3; conditions: read-out: FGFR3 IC50; pre-incubated for 4 hours
Description: as §1, §2

[1] = pre-incubated for 5 to 10 minutes

FGFR4, sequence (P22455 22-802): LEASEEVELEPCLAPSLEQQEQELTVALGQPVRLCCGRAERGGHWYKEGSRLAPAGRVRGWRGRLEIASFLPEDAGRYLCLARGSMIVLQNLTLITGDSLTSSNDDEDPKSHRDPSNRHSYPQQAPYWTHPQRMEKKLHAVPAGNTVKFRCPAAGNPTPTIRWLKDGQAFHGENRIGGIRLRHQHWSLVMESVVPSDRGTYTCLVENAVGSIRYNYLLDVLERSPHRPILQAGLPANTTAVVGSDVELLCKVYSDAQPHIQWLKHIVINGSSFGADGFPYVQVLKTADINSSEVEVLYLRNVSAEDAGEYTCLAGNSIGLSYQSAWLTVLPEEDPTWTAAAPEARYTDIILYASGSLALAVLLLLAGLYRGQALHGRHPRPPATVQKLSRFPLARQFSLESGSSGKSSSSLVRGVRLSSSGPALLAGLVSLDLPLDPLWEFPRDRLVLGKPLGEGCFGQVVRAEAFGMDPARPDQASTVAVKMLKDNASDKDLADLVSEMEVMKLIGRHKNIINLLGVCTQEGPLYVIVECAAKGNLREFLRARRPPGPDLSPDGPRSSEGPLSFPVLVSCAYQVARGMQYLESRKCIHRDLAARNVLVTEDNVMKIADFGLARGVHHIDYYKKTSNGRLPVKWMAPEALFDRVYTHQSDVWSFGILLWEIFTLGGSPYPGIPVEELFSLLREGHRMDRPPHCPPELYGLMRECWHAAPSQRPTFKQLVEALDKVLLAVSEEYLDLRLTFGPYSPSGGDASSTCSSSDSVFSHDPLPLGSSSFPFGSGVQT
FGFR3, sequence (P22607 23-806): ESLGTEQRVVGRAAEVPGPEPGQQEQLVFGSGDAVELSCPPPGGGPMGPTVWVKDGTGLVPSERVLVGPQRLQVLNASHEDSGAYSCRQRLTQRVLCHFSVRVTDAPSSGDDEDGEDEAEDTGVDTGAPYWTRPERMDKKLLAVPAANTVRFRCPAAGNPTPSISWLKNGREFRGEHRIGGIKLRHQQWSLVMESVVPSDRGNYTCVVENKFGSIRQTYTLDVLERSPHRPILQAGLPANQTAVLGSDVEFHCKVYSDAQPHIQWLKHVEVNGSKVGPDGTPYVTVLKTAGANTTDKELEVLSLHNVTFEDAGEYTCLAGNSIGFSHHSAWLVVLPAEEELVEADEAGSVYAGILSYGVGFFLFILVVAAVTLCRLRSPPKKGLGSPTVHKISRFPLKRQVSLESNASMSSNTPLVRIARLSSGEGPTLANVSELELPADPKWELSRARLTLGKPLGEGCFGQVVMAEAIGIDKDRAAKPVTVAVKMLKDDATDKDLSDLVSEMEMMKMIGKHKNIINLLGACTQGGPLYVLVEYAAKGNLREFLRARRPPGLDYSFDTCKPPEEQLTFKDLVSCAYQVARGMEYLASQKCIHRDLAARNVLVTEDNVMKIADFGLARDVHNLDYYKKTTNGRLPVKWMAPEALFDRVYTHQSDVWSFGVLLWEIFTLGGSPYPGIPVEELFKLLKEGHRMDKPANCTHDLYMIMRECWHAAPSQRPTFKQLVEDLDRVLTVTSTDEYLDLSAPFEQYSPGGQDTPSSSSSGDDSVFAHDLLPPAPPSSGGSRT
FGFR1, sequence (P11362 22-822): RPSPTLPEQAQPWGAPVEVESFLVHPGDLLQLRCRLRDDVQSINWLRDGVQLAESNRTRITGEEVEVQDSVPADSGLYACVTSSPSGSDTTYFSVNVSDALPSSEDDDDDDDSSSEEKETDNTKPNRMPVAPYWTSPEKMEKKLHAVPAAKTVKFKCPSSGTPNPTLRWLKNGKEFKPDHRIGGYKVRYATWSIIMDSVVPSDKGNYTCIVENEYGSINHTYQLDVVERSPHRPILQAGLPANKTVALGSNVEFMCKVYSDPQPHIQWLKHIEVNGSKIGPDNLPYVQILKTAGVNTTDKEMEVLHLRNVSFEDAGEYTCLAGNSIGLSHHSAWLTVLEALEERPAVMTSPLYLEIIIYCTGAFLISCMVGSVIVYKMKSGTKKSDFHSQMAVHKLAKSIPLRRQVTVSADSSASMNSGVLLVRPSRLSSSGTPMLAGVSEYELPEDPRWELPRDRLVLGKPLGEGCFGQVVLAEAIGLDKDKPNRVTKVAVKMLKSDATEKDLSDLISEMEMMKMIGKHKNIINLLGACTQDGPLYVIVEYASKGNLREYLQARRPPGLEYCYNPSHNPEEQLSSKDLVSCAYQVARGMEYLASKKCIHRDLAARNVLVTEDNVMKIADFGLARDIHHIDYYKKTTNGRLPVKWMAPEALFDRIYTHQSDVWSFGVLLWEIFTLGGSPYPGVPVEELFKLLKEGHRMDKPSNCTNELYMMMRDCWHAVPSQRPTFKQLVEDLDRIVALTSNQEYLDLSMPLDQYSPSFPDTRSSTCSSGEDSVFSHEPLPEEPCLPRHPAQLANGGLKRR
FGFR2, sequence (P21802 22-821): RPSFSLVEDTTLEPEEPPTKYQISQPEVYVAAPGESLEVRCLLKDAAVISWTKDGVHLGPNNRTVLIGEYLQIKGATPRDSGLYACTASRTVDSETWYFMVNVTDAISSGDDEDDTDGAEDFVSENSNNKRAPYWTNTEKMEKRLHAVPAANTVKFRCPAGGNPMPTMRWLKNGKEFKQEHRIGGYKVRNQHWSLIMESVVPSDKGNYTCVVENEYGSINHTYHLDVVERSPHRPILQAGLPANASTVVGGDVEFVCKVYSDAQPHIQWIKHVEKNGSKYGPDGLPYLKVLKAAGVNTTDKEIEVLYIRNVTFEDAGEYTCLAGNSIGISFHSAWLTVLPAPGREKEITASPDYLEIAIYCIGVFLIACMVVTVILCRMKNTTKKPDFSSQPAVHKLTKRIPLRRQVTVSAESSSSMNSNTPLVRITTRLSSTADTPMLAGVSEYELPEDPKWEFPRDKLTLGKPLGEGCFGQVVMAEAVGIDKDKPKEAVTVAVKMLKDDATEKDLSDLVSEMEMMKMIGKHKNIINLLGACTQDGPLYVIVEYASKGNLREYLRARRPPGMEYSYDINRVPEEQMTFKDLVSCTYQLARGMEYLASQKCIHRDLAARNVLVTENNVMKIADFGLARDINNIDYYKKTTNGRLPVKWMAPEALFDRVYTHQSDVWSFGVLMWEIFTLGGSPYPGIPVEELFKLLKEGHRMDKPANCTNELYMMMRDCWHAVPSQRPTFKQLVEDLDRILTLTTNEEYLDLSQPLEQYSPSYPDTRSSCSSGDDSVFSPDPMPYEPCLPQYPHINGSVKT

Row | SMILES | FGFR1/FGFR4 (FGFR4; pre-incubated for 4 hours) | FGFR2/FGFR4 (FGFR4; pre-incubated for 4 hours) | FGFR3/FGFR4 (FGFR4; pre-incubated for 4 hours) | IC50 (FGFR2) [µM] | IC50 (FGFR1) [µM] | IC50 (FGFR3) [µM] | FGFR1/FGFR4 (FGFR4; [1]) | FGFR2/FGFR4 (FGFR4; [1]) | FGFR3/FGFR4 (FGFR4; [1]) | IC50 (FGFR4; read-out: FGFR4 IC50, pre-incubated for 4 hours) [µM]
1 | C=CC(=O)Nc1cc(-c2cc3c(cn2)CN(c2c(F)c(OC)cc(OC)c2F)C(=O)C32CC2)cc(N2CCOCC2)c1 [Example 10, N-{3-[2′-(2,6-difluoro-3,5-dimethoxyphenyl)-3′-oxo-2′,3′-dihydro-1′H-spiro[cyclopropane-1,4′-[2,7]naphthyridin]-6′-yl]-5-morpholin-4-ylphenyl}acrylamide] | >100 | >100 | >100 | – | – | – | >100 | >100 | >100 | –
2 | C=CC(=O)Nc1cnn(Cc2ccncc2)c1-c1cc2c(cn1)CN(c1c(F)c(OC)cc(OC)c1F)C(=O)C21CC1 [Example 21, N-(5-(2′-(2,6-difluoro-3,5-dimethoxyphenyl)-3′-oxo-2′,3′-dihydro-1′H-spiro[cyclopropane-1,4′-[2,7]naphthyridine]-6′-yl)-1-(pyridin-4-ylmethyl)-1H-pyrazol-4-yl)acrylamide] | >100 | >50 | >100 | – | – | – | – | – | – | –
3 | C=CC(=O)Nc1cnn(CCN2CCOCC2)c1-c1cc2c(cn1)CN(c1c(F)c(OC)cc(OC)c1F)C(=O)C21CC1 [Example 19, N-(5-(2′-(2,6-difluoro-3,5-dimethoxyphenyl)-3′-oxo-2′,3′-dihydro-1′H-spiro[cyclopropane-1,4′-[2,7]naphthyridine]-6′-yl)-1-(2-morpholinoethyl)-1H-pyrazol-4-yl)acrylamide] | >100 | >100 | >100 | – | – | – | – | – | – | –
4 | C=CC(=O)Nc1cnn(C[C@H]2CCOC2)c1-c1cc2c(cn1)CN(c1c(F)c(OC)cc(OC)c1F)C(=O)C21CC1 [Example 29, (R)-N-(5-(2′-(2,6-difluoro-3,5-dimethoxyphenyl)-3′-oxo-2′,3′-dihydro-1′H-spiro[cyclopropane-1,4′-[2,7]naphthyridine]-6′-yl)-1-((tetrahydrofuran-3-yl)methyl)-1H-pyrazol-4-yl)acrylamide] | >100 | >100 | >100 | – | – | – | – | – | – | –
5 | C=CC(=O)Nc1cnn(Cc2ccon2)c1-c1cc2c(cn1)CN(c1c(F)c(OC)cc(OC)c1F)C(=O)C21CC1 [Example 25, N-(5-(2′-(2,6-difluoro-3,5-dimethoxyphenyl)-3′-oxo-2′,3′-dihydro-1′H-spiro[cyclopropane-1,4′-[2,7]naphthyridine]-6′-yl)-1-(isoxazol-3-ylmethyl)-1H-pyrazol-4-yl)acrylamide] | >100 | >100 | >100 | – | – | – | – | – | – | –
6 | C=CC(=O)Nc1ccc(C)c(-c2ncc3c(n2)C2(CC2)C(=O)N(c2c(F)c(OC)cc(OC)c2F)C3)c1 [Example 37, N-(3-(6′-(2,6-difluoro-3,5-dimethoxyphenyl)-7′-oxo-6′,7′-dihydro-5′H-spiro[cyclopropane-1,8′-pyrido[4,3-d]pyrimidine]-2′-yl)-4-methylphenyl)acrylamide] | >100 | >100 | >100 | – | – | – | – | – | – | –

The next lines start with the values.

Row | FGFR1/FGFR4 (FGFR4; pre-incubated for 4 hours) | FGFR2/FGFR4 (FGFR4; pre-incubated for 4 hours) | FGFR3/FGFR4 (FGFR4; pre-incubated for 4 hours) | IC50 (FGFR2) [µM] | IC50 (FGFR1) [µM] | IC50 (FGFR3) [µM] | FGFR1/FGFR4 (FGFR4; [1]) | FGFR2/FGFR4 (FGFR4; [1]) | FGFR3/FGFR4 (FGFR4; [1]) | IC50 (FGFR4; read-out: FGFR4 IC50, pre-incubated for 4 hours) [µM] | SMILES
7 | >50 | >100 | >100 | > 0.2 | > 0.2 | > 0.2 | – | – | – | – | C=CC(=O)Nc1cnn(CC(=O)NC)c1-c1cc2c(cn1)CN(c1c(F)c(OC)cc(OC)c1F)C(=O)C21CC1 [Example 20, N-(5-(2′-(2,6-difluoro-3,5-dimethoxyphenyl)-3′-oxo-2′,3′-dihydro-1′H-spiro[cyclopropane-1,4′-[2,7]naphthyridine]-6′-yl)-1-(2-(methylamino)-2-oxoethyl)-1H-pyrazol-4-yl)acrylamide]
8 | >100 | >100 | >100 | – | – | – | – | – | – | – | C=CC(=O)Nc1cnn(Cc2cnn(C)c2)c1-c1cc2c(cn1)CN(c1c(F)c(OC)cc(OC)c1F)C(=O)C21CC1 [Example 27, N-(5-(2′-(2,6-difluoro-3,5-dimethoxyphenyl)-3′-oxo-2′,3′-dihydro-1′H-spiro[cyclopropane-1,4′-[2,7]naphthyridine]-6′-yl)-1-((1-methyl-1H-pyrazol-4-yl)methyl)-1H-pyrazol-4-yl)acrylamide]
9 | >100 | >100 | >100 | – | – | – | – | – | – | – | C=CC(=O)Nc1cn[nH]c1-c1cc2c(cn1)CN(c1c(F)c(OC)cc(OC)c1F)C(=O)C21CC1 [Example 14, N-(5-(2′-(2,6-difluoro-3,5-dimethoxyphenyl)-3′-oxo-2′,3′-dihydro-1′H-spiro[cyclopropane-1,4′-[2,7]naphthyridine]-6′-yl)-1H-pyrazol-4-yl)acrylamide]
10 | >100 | >100 | >100 | – | – | – | >100 | >100 | >100 | – | C=CC(=O)Nc1cc(-c2cc3c(cn2)CN(c2c(F)c(OC)cc(OC)c2F)C(=O)C32CC2)c(C)cc1F [Example 6, N-(5-(2′-(2,6-difluoro-3,5-dimethoxyphenyl)-3′-oxo-2′,3′-dihydro-1′H-spiro[cyclopropane-1,4′-[2,7]naphthyridine]-6′-yl)-2-fluoro-4-methylphenyl)acrylamide]
11 | >100 | >100 | >100 | > 0.2 | > 0.2 | > 0.2 | – | – | – | < 0.01 | C=CC(=O)Nc1cnn(C[C@@H]2CCCO2)c1-c1cc2c(cn1)CN(c1c(F)c(OC)cc(OC)c1F)C(=O)C21CC1 [Example 31, (S)-N-(5-(2′-(2,6-difluoro-3,5-dimethoxyphenyl)-3′-oxo-2′,3′-dihydro-1′H-spiro[cyclopropane-1,4′-[2,7]naphthyridine]-6′-yl)-1-((tetrahydrofuran-2-yl)methyl)-1H-pyrazol-4-yl)acrylamide]
12 | >100 | >100 | >100 | – | – | – | – | – | – | – | C=CC(=O)Nc1cn(CC(=O)N(C)C)nc1-c1cc2c(cn1)CN(c1c(F)c(OC)cc(OC)c1F)C(=O)C21CC1 [Example 36, N-(3-(2′-(2,6-difluoro-3,5-dimethoxyphenyl)-3′-oxo-2′,3′-dihydro-1′H-spiro[cyclopropane-1,4′-[2,7]naphthyridine]-6′-yl)-1-(2-(dimethylamino)-2-oxoethyl)-1H-pyrazol-4-yl)acrylamide]
